In PubChem BioAssay (NCI):
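Following 48 hours of exposure in 96-well plates, responses at five concentrations were used to interpolate endpoints linearly. Here, GI50 denotes the concentration required for 50% inhibition of growth. At the TGI there is no net growth.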

Key:
Experiment in all cases: NCI anticancer screen, dose series, 48 h
MDA-MB-435 = tested on: MDA-MB-435
SF-539 CNS = tested on: SF-539 CNS
SF-268 CNS = tested on: SF-268 CNS
HCT-15 colon = tested on: HCT-15 colon
MCF7 breast = tested on: MCF7 breast
M14 melanoma = tested on: M14 melanoma
SK-OV-3 ovarian = tested on: SK-OV-3 ovarian
OVCAR-3 ovarian = tested on: OVCAR-3 ovarian
U251 CNS = tested on: U251 CNS
DU-145 prostate = tested on: DU-145 prostate
A549 NSCLC = tested on: A549 NSCLC
NCI-H460 lung = tested on: NCI-H460 lung
HT29 colon = tested on: HT29 colon
KM12 colon = tested on: KM12 colon
EKVX NSCLC = tested on: EKVX NSCLC
HCT-116 colon = tested on: HCT-116 colon
BT-549 breast = tested on: BT-549 breast
MDA-MB-468 breast = tested on: MDA-MB-468 breast
PC-3 prostate = tested on: PC-3 prostate
OVCAR-8 ovarian = tested on: OVCAR-8 ovarian
CCRF-CEM leukemia = tested on: CCRF-CEM leukemia
SN12C renal = tested on: SN12C renal
K-562 leukemia = tested on: K-562 leukemia
COLO 205 colon = tested on: COLO 205 colon
MOLT-4 leukemia = tested on: MOLT-4 leukemia
LOX IMVI melanoma = tested on: LOX IMVI melanoma
OVCAR-4 ovarian = tested on: OVCAR-4 ovarian
A498 renal = tested on: A498 renal
SNB-75 CNS = tested on: SNB-75 CNS
ACHN renal = tested on: ACHN renal
HCC-2998 colon = tested on: HCC-2998 colon
MALME-3M melanoma = tested on: MALME-3M melanoma
UO-31 renal = tested on: UO-31 renal
SF-295 CNS = tested on: SF-295 CNS
786-0 renal = tested on: 786-0 renal
OVCAR-5 ovarian = tested on: OVCAR-5 ovarian
HL-60(TB) leukemia = tested on: HL-60(TB) leukemia
CAKI-1 renal = tested on: CAKI-1 renal
UACC-257 melanoma = tested on: UACC-257 melanoma
TK-10 renal = tested on: TK-10 renal
IGROV1 ovarian = tested on: IGROV1 ovarian
HOP-92 NSCLC = tested on: HOP-92 NSCLC
RXF 393 renal = tested on: RXF 393 renal
HOP-62 NSCLC = tested on: HOP-62 NSCLC
T-47D breast = tested on: T-47D breast
SNB-19 CNS = tested on: SNB-19 CNS
RPMI-8226 leukemia = tested on: RPMI-8226 leukemia
NCI-H522 lung = tested on: NCI-H522 lung
HS 578T breast = tested on: HS 578T breast
NCI-H23 lung = tested on: NCI-H23 lung
SW-620 colon = tested on: SW-620 colon
NCI-H226 lung = tested on: NCI-H226 lung
MDA-MB-231 breast = tested on: MDA-MB-231 breast
UACC-62 melanoma = tested on: UACC-62 melanoma
SR leukemia = tested on: SR leukemia
SK-MEL-5 melanoma = tested on: SK-MEL-5 melanoma
SK-MEL-2 melanoma = tested on: SK-MEL-2 melanoma
SK-MEL-28 melanoma = tested on: SK-MEL-28 melanoma

## O=C(/C=C/c1cccc(Br)c1)c1nc2ccccc2n1Cc1ccc(Br)cc1
MDA-MB-435
  GI50: 2.01 µM
  TGI: 4.79 µM
SF-539 CNS
  GI50: 1.99 µM
  TGI: 3.92 µM
SF-268 CNS
  GI50: 4.93 µM
  TGI: 71.7 µM
HCT-15 colon
  GI50: 1.56 µM
  TGI: 3.19 µM
MCF7 breast
  GI50: 1.7 µM
  TGI: 5.71 µM
M14 melanoma
  GI50: 1.77 µM
  TGI: 3.59 µM
SK-OV-3 ovarian
  GI50: 14.4 µM
  TGI: > 100 µM
OVCAR-3 ovarian
  GI50: 1.56 µM
  TGI: 3.3 µM
U251 CNS
  GI50: 1.7 µM
  TGI: 3.38 µM
DU-145 prostate
  GI50: 4.1 µM
  TGI: 15.9 µM
A549 NSCLC
  GI50: 3.97 µM
  TGI: > 100 µM
NCI-H460 lung
  GI50: 1.77 µM
  TGI: 3.87 µM
HT29 colon
  GI50: 2.13 µM
  TGI: 4.9 µM
KM12 colon
  GI50: 2.53 µM
  TGI: 7.44 µM
EKVX NSCLC
  GI50: 2.4 µM
  TGI: 7.64 µM
HCT-116 colon
  GI50: 1.67 µM
  TGI: 3.14 µM
BT-549 breast
  GI50: 1.77 µM
  TGI: 3.55 µM
MDA-MB-468 breast
  GI50: 1.87 µM
  TGI: 3.85 µM
PC-3 prostate
  GI50: 3.3 µM
  TGI: 14.9 µM
OVCAR-8 ovarian
  GI50: 2.15 µM
  TGI: 5.71 µM
CCRF-CEM leukemia
  GI50: 2.09 µM
  TGI: > 100 µM
SN12C renal
  GI50: 3.42 µM
  TGI: 12.9 µM
K-562 leukemia
  GI50: 2.6 µM
  TGI: > 100 µM
COLO 205 colon
  GI50: 1.99 µM
  TGI: 4.11 µM
MOLT-4 leukemia
  GI50: 2.11 µM
  TGI: 9.16 µM
LOX IMVI melanoma
  GI50: 1.5 µM
  TGI: 2.9 µM
OVCAR-4 ovarian
  GI50: 4.07 µM
  TGI: > 100 µM
A498 renal
  GI50: 13.5 µM
  TGI: 28.1 µM
SNB-75 CNS
  GI50: 3.4 µM
  TGI: 25.2 µM
ACHN renal
  GI50: 2.41 µM
  TGI: 6.53 µM
HCC-2998 colon
  GI50: 1.69 µM
  TGI: 3.12 µM
MALME-3M melanoma
  GI50: 1.91 µM
  TGI: 3.97 µM
UO-31 renal
  GI50: 1.37 µM
  TGI: 2.78 µM
SF-295 CNS
  GI50: 2.07 µM
  TGI: 5.11 µM
786-0 renal
  GI50: 1.86 µM
  TGI: 3.7 µM
OVCAR-5 ovarian
  GI50: 2.06 µM
  TGI: 4.08 µM
HL-60(TB) leukemia
  GI50: 1.75 µM
  TGI: 5.12 µM
CAKI-1 renal
  GI50: 1.85 µM
  TGI: 5.35 µM
UACC-257 melanoma
  GI50: 3.04 µM
  TGI: 12 µM
TK-10 renal
  GI50: 3.07 µM
  TGI: 11.6 µM
IGROV1 ovarian
  GI50: 2.16 µM
  TGI: 5.4 µM
HOP-92 NSCLC
  GI50: 1.6 µM
  TGI: 6.46 µM
RXF 393 renal
  GI50: 1.54 µM
  TGI: 2.95 µM
HOP-62 NSCLC
  GI50: 2.16 µM
  TGI: 4.76 µM
T-47D breast
  GI50: 2.33 µM
  TGI: 9.62 µM
SNB-19 CNS
  GI50: 1.77 µM
  TGI: 3.64 µM
RPMI-8226 leukemia
  GI50: 2.39 µM
  TGI: 8.27 µM
NCI-H522 lung
  GI50: 1.73 µM
  TGI: 3.48 µM
HS 578T breast
  GI50: 3.71 µM
  TGI: > 100 µM
NCI-H23 lung
  GI50: 1.77 µM
  TGI: 3.99 µM
SW-620 colon
  GI50: 1.6 µM
  TGI: 3.59 µM
NCI-H226 lung
  GI50: 2.45 µM
  TGI: 6.13 µM
MDA-MB-231 breast
  GI50: 2.06 µM
  TGI: 4.61 µM
UACC-62 melanoma
  GI50: 1.54 µM
  TGI: 3.28 µM
SR leukemia
  GI50: 2.53 µM
  TGI: 8.96 µM
SK-MEL-5 melanoma
  GI50: 1.7 µM
  TGI: 3.55 µM
SK-MEL-2 melanoma
  GI50: 1.66 µM
  TGI: 3.29 µM
SK-MEL-28 melanoma
  GI50: 1.82 µM
  TGI: 3.68 µM
